This passage reports IC50 results from ChEMBL document CHEMBL3886367, “Substituted pyridine compound” (2015).

Structures are written as SMILES.

This assay has as its target T1, Cholesteryl ester transfer protein (Homo sapiens, UniProt P11597).
T1 sequence (P11597 whole entry): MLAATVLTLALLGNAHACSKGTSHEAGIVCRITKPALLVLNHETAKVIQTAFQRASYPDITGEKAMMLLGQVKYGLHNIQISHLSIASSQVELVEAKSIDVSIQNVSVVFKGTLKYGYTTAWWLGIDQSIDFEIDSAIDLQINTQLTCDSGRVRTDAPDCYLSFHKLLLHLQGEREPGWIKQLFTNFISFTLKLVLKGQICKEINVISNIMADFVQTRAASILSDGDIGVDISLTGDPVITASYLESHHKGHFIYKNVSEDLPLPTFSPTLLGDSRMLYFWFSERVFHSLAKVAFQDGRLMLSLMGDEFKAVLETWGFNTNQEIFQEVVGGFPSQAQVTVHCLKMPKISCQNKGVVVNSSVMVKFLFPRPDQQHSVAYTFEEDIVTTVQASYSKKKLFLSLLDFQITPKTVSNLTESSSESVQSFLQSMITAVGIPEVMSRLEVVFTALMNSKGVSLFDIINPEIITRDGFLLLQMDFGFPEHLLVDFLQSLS
In words: CETP Inhibition Assay: A recombinant human CETP protein (manufactured by Roar Biomedical Inc.; 4.5 ng), the acceptor lipoprotein described in (2) above (32.5 ug) and 5,5'-dithio-bis-(2-nitrobenzoic acid) (7 mM, 15 ul) were taken in a 96 well plate and the total amount of the mixture was adjusted to 48.5 ul with the PBS solution. The test compound [DMSO solution (concentration: 0.15, 0.5, 1.5, 5, 15, 50, 150 and 500 uM; 1.5 ul] was added to each well and the mixture was incubated in a thermostatic bath at 37° C. for 60 minutes. The reconstituted HDL (50 ul) described in (1) above was added to each well and the mixture was reacted in a thermostatic bath at 37° C. for 60 minutes. The 96 well plate was moved onto ice and a precipitation reagent [a mixed solution of magnesium chloride (60 mM) and 0.1% dextran sulfate [1/1 (v/v)]; 15 ul] was added to each well, and then the mixture was allowed to stand on ice for 15 minutes.
For the compound `CC1(C)Cc2nc(C3CCN(c4ncc(OCCO)cn4)CC3)c([C@@H](F)c3ccc(C(F)(F)F)cc3)c(C3CCC(F)(F)CC3)c2[C@@H](O)C1`, the IC50 was 37 nM.

Turning to `CC1(C)Cc2nc(C3CCN(c4ncc(N5CCS(=O)(=O)CC5)cn4)CC3)c([C@@H](F)c3ccc(C(F)(F)F)cc3)c(C3CCC(F)(F)CC3)c2[C@@H](O)C1`, the half-inhibitory concentration (IC50) is 49 nM.

As for `CCOc1cnc(N2CCC(c3nc4c(c(C5CCC(F)(F)CC5)c3[C@@H](F)c3ccc(C(F)(F)F)cc3)[C@@H](O)CC(C)(C)C4)CC2)nc1` (single isomer, unassigned), the half-inhibitory concentration (IC50) was determined as 92 nM.

Consider `CC1(C)Cc2nc(C3CCN(c4ncc(Br)cn4)CC3)c([C@@H](F)c3ccc(C(F)(F)F)cc3)c(C3CCC(F)(F)CC3)c2[C@@H](O)C1` (single isomer, unassigned), for which the IC50 stood at 150 nM.

One may read the IC50 as the concentration that gives 50% inhibition.
